From ChEMBL document CHEMBL3044687, “Microwave-assisted synthesis of some novel and potent antibacterial and antifungal compounds with biological screening” (2012) come the findings set out here.

Common to all, as to assay type: functional
Common to all, as to settings: read-out: DIZ

Assay [1] relates to Staphylococcus aureus. Nature of the assay: Antibacterial activity against Staphylococcus aureus at 100 ug/ml after 24 hr by disk diffusion method. Background: Agar diffusion results depend on both activity and mobility in agar.
Assay [2] has as its system Staphylococcus aureus. Nature of the assay: Antibacterial activity against Staphylococcus aureus at 50 ug/ml after 24 hr by disk diffusion method.
In assay [3] the test system is Bacillus subtilis. Nature of the assay: Antibacterial activity against Bacillus subtilis at 100 ug/ml after 24 hr by disk diffusion method.
Assay [4] concerns Bacillus subtilis. Nature of the assay: Antibacterial activity against Bacillus subtilis at 200 ug/ml after 24 hr by disk diffusion method.
Assay [5] relates to Bacillus subtilis. Nature of the assay: Antibacterial activity against Bacillus subtilis at 50 ug/ml after 24 hr by disk diffusion method.
Assay [6] has as its system Pseudomonas aeruginosa. Nature of the assay: Antibacterial activity against Pseudomonas aeruginosa at 100 ug/ml after 24 hr by disk diffusion method.
For assay [7], the system named is Pseudomonas aeruginosa. Nature of the assay: Antibacterial activity against Pseudomonas aeruginosa at 200 ug/ml after 24 hr by disk diffusion method.
Assay [8] relates to Pseudomonas aeruginosa. Nature of the assay: Antibacterial activity against Pseudomonas aeruginosa at 50 ug/ml after 24 hr by disk diffusion method.
Assay [9] deals with Escherichia coli. Nature of the assay: Antibacterial activity against Escherichia coli at 200 ug/ml after 24 hr by disk diffusion method.
Assay [10] concerns Escherichia coli. Nature of the assay: Antibacterial activity against Escherichia coli at 50 ug/ml after 24 hr by disk diffusion method.
For assay [11], the system named is Escherichia coli. Nature of the assay: Antibacterial activity against Escherichia coli at 100 ug/ml after 24 hr by disk diffusion method.
The subject of assay [12] is Candida albicans. Nature of the assay: Antifungal activity against Candida albicans at 200 ug/ml after 48 hr by disk diffusion method.
For assay [13], the system named is Aspergillus niger. Nature of the assay: Antifungal activity against Aspergillus niger at 50 ug/ml after 48 hr by disk diffusion method.
The test system of assay [14] is Candida albicans. Nature of the assay: Antifungal activity against Candida albicans at 100 ug/ml after 48 hr by disk diffusion method.
In assay [15] the test system is Candida albicans. Nature of the assay: Antifungal activity against Candida albicans at 50 ug/ml after 48 hr by disk diffusion method.
For assay [16], the system named is Staphylococcus aureus. Nature of the assay: Antibacterial activity against Staphylococcus aureus at 200 ug/ml after 24 hr by disk diffusion method.
For assay [17], the system named is Aspergillus niger. Nature of the assay: Antifungal activity against Aspergillus niger at 200 ug/ml after 48 hr by disk diffusion method.
Assay [18] concerns Aspergillus niger. Nature of the assay: Antifungal activity against Aspergillus niger at 100 ug/ml after 48 hr by disk diffusion method.

As for `O=C1N(c2ccccc2)C(=O)C(c2ccccc2)(c2ccccc2)N1Cn1cnc2ccccc21`, the zone of inhibition at 100 µg/mL turned out to be 10 mm in the assay with Staphylococcus aureus [1]; 13 mm in the assay with Bacillus subtilis [3]; 8 mm in the assay on Pseudomonas aeruginosa [6]; 12 mm in the assay on Escherichia coli [11]; 24 mm in the assay with Candida albicans [14]; 19 mm in the assay with Aspergillus niger [18]. In addition, the zone of inhibition at 50 µg/mL in the assay with Staphylococcus aureus [2] turned out to be 5 mm; in the assay with Bacillus subtilis [5] it was 5 mm; in the assay on Pseudomonas aeruginosa [8], 4 mm; in the assay on Escherichia coli [10] it was 6 mm; in the assay with Aspergillus niger [13], 16 mm; with Candida albicans [15] it was 16 mm. In addition, the zone of inhibition at 200 µg/mL in the assay on Bacillus subtilis [4] was found to be 18 mm; in the assay on Pseudomonas aeruginosa [7], 12 mm; in the assay on Escherichia coli [9], 18 mm; in the assay with Candida albicans [12] it was 32 mm; in the assay with Staphylococcus aureus [16] it was 12 mm; in the assay on Aspergillus niger [17], 32 mm.
Take `O=C1N(c2ccccc2)C(=O)C(c2ccccc2)(c2ccccc2)N1CN1CCOCC1`: the zone of inhibition at 100 µg/mL came out at 6 mm in the assay on Staphylococcus aureus [1]; 9 mm in the assay with Bacillus subtilis [3]; 6 mm in the assay on Pseudomonas aeruginosa [6]; 8 mm in the assay with Escherichia coli [11]; 12 mm in the assay with Candida albicans [14]; 11 mm with Aspergillus niger [18]. In addition, the zone of inhibition at 50 µg/mL in the assay with Staphylococcus aureus [2] is 5 mm; in the assay on Bacillus subtilis [5], 4 mm; in the assay with Pseudomonas aeruginosa [8] it was 4 mm; with Escherichia coli [10] it was 4 mm; with Aspergillus niger [13] it was 10 mm; with Candida albicans [15] it was 10 mm. The zone of inhibition at 200 µg/mL was found to be 11 mm in the assay with Bacillus subtilis [4]; 11 mm with Pseudomonas aeruginosa [7]; 15 mm with Escherichia coli [9]; 15 mm with Candida albicans [12]; 9 mm with Staphylococcus aureus [16]; 12 mm in the assay with Aspergillus niger [17].
Consider `CN1CCN(CN2C(=O)N(c3ccccc3)C(=O)C2(c2ccccc2)c2ccccc2)CC1`, for which the zone of inhibition at 100 µg/mL in the assay with Staphylococcus aureus [1] was 10 mm; in the assay with Bacillus subtilis [3], 5 mm; with Pseudomonas aeruginosa [6], 6 mm; in the assay with Escherichia coli [11], 13 mm; with Candida albicans [14], 13 mm; in the assay with Aspergillus niger [18] it was 12 mm. Moreover, the zone of inhibition at 50 µg/mL amounted to 6 mm with Staphylococcus aureus [2]; 4 mm in the assay with Bacillus subtilis [5]; 4 mm in the assay on Pseudomonas aeruginosa [8]; 6 mm with Escherichia coli [10]; 11 mm in the assay with Aspergillus niger [13]; 12 mm in the assay with Candida albicans [15]. Moreover, the zone of inhibition at 200 µg/mL worked out at 14 mm in the assay with Bacillus subtilis [4]; 10 mm in the assay on Pseudomonas aeruginosa [7]; 16 mm with Escherichia coli [9]; 13 mm with Candida albicans [12]; 18 mm in the assay on Staphylococcus aureus [16]; 12 mm with Aspergillus niger [17].
Take `O=C1NC(c2ccccc2)(c2ccccc2)C(=O)N1CN1CCOCC1`: the zone of inhibition at 100 µg/mL in the assay with Staphylococcus aureus [1] was determined as 6 mm; in the assay with Bacillus subtilis [3] it was 12 mm; in the assay with Pseudomonas aeruginosa [6], 8 mm; in the assay on Escherichia coli [11], 10 mm; with Candida albicans [14], 12 mm; with Aspergillus niger [18] it was 11 mm. Moreover, the zone of inhibition at 50 µg/mL worked out at 5 mm in the assay with Staphylococcus aureus [2]; 4 mm in the assay on Bacillus subtilis [5]; 4 mm in the assay with Pseudomonas aeruginosa [8]; 4 mm in the assay on Escherichia coli [10]; 10 mm with Aspergillus niger [13]; 10 mm in the assay with Candida albicans [15]. The zone of inhibition at 200 µg/mL with Bacillus subtilis [4] was 14 mm; in the assay on Pseudomonas aeruginosa [7] it was 14 mm; with Escherichia coli [9] it was 17 mm; in the assay on Candida albicans [12] it was 15 mm; in the assay on Staphylococcus aureus [16], 9 mm; in the assay on Aspergillus niger [17], 12 mm.
`CN1CCN(CN2C(=O)NC(c3ccccc3)(c3ccccc3)C2=O)CC1`: the zone of inhibition at 100 µg/mL in the assay with Staphylococcus aureus [1] is 12 mm; in the assay on Bacillus subtilis [3], 12 mm; in the assay on Pseudomonas aeruginosa [6] it was 6 mm; with Escherichia coli [11], 13 mm; with Candida albicans [14] it was 13 mm; with Aspergillus niger [18], 12 mm. Moreover, the zone of inhibition at 50 µg/mL in the assay on Staphylococcus aureus [2] is 6 mm; in the assay on Bacillus subtilis [5] it was 4 mm; in the assay with Pseudomonas aeruginosa [8], 4 mm; with Escherichia coli [10], 6 mm; in the assay on Aspergillus niger [13] it was 11 mm; in the assay on Candida albicans [15] it was 12 mm. Besides, the zone of inhibition at 200 µg/mL with Bacillus subtilis [4] was found to be 19 mm; in the assay on Pseudomonas aeruginosa [7], 10 mm; in the assay on Escherichia coli [9] it was 16 mm; in the assay with Candida albicans [12], 13 mm; in the assay on Staphylococcus aureus [16] it was 20 mm; with Aspergillus niger [17], 12 mm.
Consider `O=C1N(c2ccccc2)C(=O)C(c2ccccc2)(c2ccccc2)N1Cn1ccnc1`, for which the zone of inhibition at 100 µg/mL with Staphylococcus aureus [1] came out at 9 mm; in the assay on Bacillus subtilis [3], 11 mm; in the assay on Pseudomonas aeruginosa [6], 9 mm; in the assay with Escherichia coli [11] it was 14 mm; with Candida albicans [14] it was 11 mm; in the assay on Aspergillus niger [18], 12 mm. Moreover, the zone of inhibition at 50 µg/mL was 4 mm in the assay on Staphylococcus aureus [2]; 5 mm in the assay on Bacillus subtilis [5]; 5 mm in the assay with Pseudomonas aeruginosa [8]; 5 mm in the assay on Escherichia coli [10]; 10 mm with Aspergillus niger [13]; 10 mm in the assay with Candida albicans [15]. For the same compound, the zone of inhibition at 200 µg/mL worked out at 13 mm in the assay on Bacillus subtilis [4]; 18 mm in the assay on Pseudomonas aeruginosa [7]; 19 mm in the assay with Escherichia coli [9]; 13 mm with Candida albicans [12]; 18 mm in the assay with Staphylococcus aureus [16]; 13 mm with Aspergillus niger [17].
In the case of `O=C1NC(c2ccccc2)(c2ccccc2)C(=O)N1Cn1ccnc1`, the zone of inhibition at 100 µg/mL came out at 11 mm in the assay on Staphylococcus aureus [1]; 11 mm in the assay on Bacillus subtilis [3]; 10 mm in the assay on Pseudomonas aeruginosa [6]; 16 mm in the assay on Escherichia coli [11]; 24 mm in the assay on Candida albicans [14]; 17 mm in the assay on Aspergillus niger [18]. For the same compound, the zone of inhibition at 50 µg/mL was 6 mm in the assay on Staphylococcus aureus [2]; 5 mm with Bacillus subtilis [5]; 6 mm in the assay with Pseudomonas aeruginosa [8]; 6 mm in the assay with Escherichia coli [10]; 15 mm in the assay on Aspergillus niger [13]; 17 mm with Candida albicans [15]. In addition, the zone of inhibition at 200 µg/mL amounted to 15 mm with Bacillus subtilis [4]; 20 mm with Pseudomonas aeruginosa [7]; 22 mm with Escherichia coli [9]; 30 mm in the assay with Candida albicans [12]; 20 mm in the assay with Staphylococcus aureus [16]; 19 mm in the assay with Aspergillus niger [17].
For the compound `CC1(C)S[C@@H]2[C@H](NC(=O)[C@H](N)c3ccccc3)C(=O)N2[C@H]1C(=O)O` [AMPICILLIN], the zone of inhibition at 100 µg/mL with Staphylococcus aureus [1] was determined as 14 mm; with Bacillus subtilis [3], 16 mm; with Pseudomonas aeruginosa [6], 14 mm; with Escherichia coli [11], 18 mm. Also, the zone of inhibition at 50 µg/mL in the assay on Staphylococcus aureus [2] worked out at 9 mm; in the assay with Bacillus subtilis [5], 10 mm; with Pseudomonas aeruginosa [8], 9 mm; in the assay with Escherichia coli [10], 10 mm. Also, the zone of inhibition at 200 µg/mL in the assay on Bacillus subtilis [4] is 26 mm; in the assay on Pseudomonas aeruginosa [7], 23 mm; in the assay on Escherichia coli [9], 29 mm; in the assay with Staphylococcus aureus [16] it was 23 mm.
With `COC1=CC(=O)C[C@@H](C)[C@]12Oc1c(Cl)c(OC)cc(OC)c1C2=O` [GRISEOFULVIN], the zone of inhibition at 200 µg/mL in the assay with Candida albicans [12] and with Aspergillus niger [17] was 40 mm in each case. The zone of inhibition at 50 µg/mL in the assay with Aspergillus niger [13] worked out at 21 mm; with Candida albicans [15], 18 mm. Moreover, the zone of inhibition at 100 µg/mL with Candida albicans [14] was 25 mm; in the assay on Aspergillus niger [18], 24 mm.
With `O=C1N(c2ccccc2)C(=O)C(c2ccccc2)(c2ccccc2)N1CNc1nccs1`, the zone of inhibition at 100 µg/mL came to 10 mm in the assay on Staphylococcus aureus [1]; 12 mm in the assay on Pseudomonas aeruginosa [6]; 10 mm with Escherichia coli [11]; 12 mm with Candida albicans [14]; 11 mm with Aspergillus niger [18]. The zone of inhibition at 50 µg/mL with Staphylococcus aureus [2] came out at 4 mm; with Bacillus subtilis [5], 5 mm; with Pseudomonas aeruginosa [8], 4 mm; in the assay with Escherichia coli [10], 5 mm; with Aspergillus niger [13] it was 11 mm; in the assay on Candida albicans [15], 11 mm. Also, the zone of inhibition at 200 µg/mL in the assay on Bacillus subtilis [4] was determined as 13 mm; in the assay with Pseudomonas aeruginosa [7], 18 mm; in the assay on Escherichia coli [9], 18 mm; in the assay on Candida albicans [12], 13 mm; in the assay on Staphylococcus aureus [16], 18 mm; in the assay on Aspergillus niger [17] it was 11 mm.
